According to PMC4947982 (Journal of Medicinal Chemistry, 2016):

Conditions: 5 mM DMSO-solutions

Compound | solubility in DMSO
CC(C)(C)c1ccc(-c2cn(-c3cc(C(=O)O)cc(-c4ccc(C5CCNCC5)cc4)c3)nn2)cc1 [Compound 79, 5-(4-(4-(tert-Butyl)phenyl)-1H-1,2,3-triazol-1-yl)-4′-(piperidin-4-yl)-[1,1′-biphenyl]-3-carboxylic Acid] | low solubility
CCCCCOc1ccc(-c2cn(-c3cc(C(=O)O)cc(-c4ccc(C5CCNCC5)cc4)c3)nn2)cc1 [Compound 82, 5-(4-(4-(Pentyloxy)phenyl)-1H-1,2,3-triazol-1-yl)-4′-(piperidin-4-yl)-[1,1′-biphenyl]-3-carboxylic Acid] | low solubility
COc1ccc(-c2cn(-c3cc(C(=O)O)cc(-c4ccc(C5CCNCC5)cc4)c3)nn2)cc1OC [Compound 95, 5-(4-(3,4-Dimethoxyphenyl)-1H-1,2,3-triazol-1-yl)-4′-(piperidin-4-yl)-[1,1′-biphenyl]-3-carboxylic Acid] | low solubility
O=C(O)c1cc(-c2ccc(C3CCNCC3)cc2)cc(-n2cc(-c3cc4ccccc4o3)nn2)c1 [Compound 101, 5-(4-(Benzofuran-2-yl)-1H-1,2,3-triazol-1-yl)-4′-(piperidin-4-yl)-[1,1′-biphenyl]-3-carboxylic Acid] | low solubility
